Results reported in patent US20120239140A1, “MEDICAL PRODUCT COMPRISING AN ACTIVE COATING” (priority 2011, published 2012).
Entries after “also recorded” stand apart in the source; their conditions may differ.

Tests used:
[1] = cited from earlier work
[2] = cited from earlier work; remark: listed apart in the source
[3] = system: pathologically altered human aortas; assay: Ex vivo test on the aorta model (stent implanted in the explant, 2 weeks culture, PCR); assay type: cell-based
Source text: The ex vivo test on pathologically altered human arteries and, in particular, on human aortas is a novel test model that makes it possible to better predict the clinical efficacy of biologically active coatings of medical implants such as stents or balloon catheters. Until now, it was not possible to perform this prediction in a reliable manner. […] These failures have engendered doubt in the benefit of the standard animal models, since, despite additional serial examinations and comprehensive screenings, the clinical efficacy of a new substance is uncertain even though preclinical results were positive. Until now there was no test model available that investigated the antiproliferative effect of new drugs in the complex biological environment of an arteriosclerotic vessel. On the basis of this novel test model, it is now possible to obtain mechanistic insights into the origin of a restenosis after stent implantation and to develop a therapy specific for the cause thereof
The special test procedure is based on the use of human pathological vascular tissue obtained directly within one hour after operation (vasectomy). Immediately after removal, the vascular preparations are placed in a sterile phosphate buffer (PBS) at room temperature, and are transported. […]

Compound	antirestenotic effect / reduction of restenosis in clinical practice [1]	efficacy in the experimental animal model [2]	proliferation of smooth muscle cells (proliferation markers KI-67 and PCNA) ([3]; Pyr3 eluted from polymeric stent coating (embodiment 1) compared with uncoated 316L stent, after stent implantation with overexpansion, FIGS. 2 and 3)	total number of smooth muscle cells (expression of hSMTN and hAlpha-actin) ([3]; stent with Pyr3 (embodiment 1) compared with uncoated 316L stent, after stent implantation, FIG. 2)
heparin	did not reduce restenosis	good efficacy	–	–
CCOC(=O)c1cnn(-c2ccc(NC(=O)C(Cl)=C(Cl)Cl)cc2)c1C(F)(F)F [Pyr3, ethyl-1-(4-(2,3,3-trichloroacrylamide)phenyl)-5-(trifluoromethyl)-1H-pyrazole-4-carboxylate]	–	–	can be inhibited; also recorded: lower overall proliferation	does not lead to the otherwise common drop in total number of smooth muscle cells
CC(=O)Oc1ccccc1C(=O)O [aspirin]	did not reduce restenosis	good efficacy	–	–
CC[C@@H]1/C=C(\C)C[C@H](C)C[C@H](OC)[C@H]2O[C@@](O)(C(=O)C(=O)N3CCCC[C@H]3C(=O)O[C@H](/C(C)=C/[C@@H]3CC[C@H](Cl)[C@H](OC)C3)[C@H](C)[C@@H](O)CC1=O)[C@H](C)C[C@@H]2OC [pimecrolimus]	did not reduce restenosis	good efficacy	–	–
